Test system: expanded naïve CD4+ T cells co-cultured with PBMCs
Experiment: Expanded CD4 positive T cell assay (cytokine release, ELISA)
Type: cell-based, human
Settings: for response across donors (frequency of responding wells, IL-10 and IFN-γ): three different donors expressing HLA-DRB1*1101, FIGS. 7A-7B
Excerpt: To improve the robustness of the assay and decrease the well-to-well variation, a novel assay system was developed. In effect, by expanding the naïve CD4+ T cells, the number of antigen specific T cells can be increased per well with the goal of detecting a responding well with greater frequency. To expand the naïve CD4+ T cells, the cells are first isolated from PBMCs using negative selection with antibody coated magnetic beads. The naïve CD4+ T cells are then polyclonally expanded using anti-CD3 and anti-CD28 Dynabeads. An expansion of up to 20-fold was observed. The beads were then removed, and the cells were rested for 24 hours. The expanded CD4+ T cells were then co-cultured with PBMCs at a 4:1 ratio and stimulated with peptides twice every 3 days. IL-2 helper cytokine was included. Peptides were utilized at 40 μg/mL. After two peptide stimulations, IL-10 levels in the range of 20-50 picograms […]/mL were observed as compared to 5-10 pg/mL for negative controls (vehicle only) (see FIG. 3C).
PBMCs were isolated from healthy HLA typed donors of different ages, ethnicities, and genders. […] 100 million PBMC were thawed into media (Rosewell Park Memorial Institute (RPMI) 1640 medium, 10% fetal bovine serum (FBS) Heat Inactivated, 1% Penicillin-Streptomycin) and rested at 37° C., 5% CO2 overnight.
Naïve CD4+ T cells are isolated from rested PBMC using the BioLegend MojoSort™ Human CD4 T Cell Isolation Kit. Isolated T cells were counted and cultured at a density of 1×10^6 cells/mL of media with 30 units per milliliter (U/mL) of IL-2. T cells were activated and expanded using ThermoFisher Dynabeads™ Human T-Activator CD3/CD28. Beads were added at a 1:1 bead-to-cell ratio. T cells are incubated at 37° C., 5% CO2 for approximately 1 week, splitting in order to maintain the 1×10^6 cells/mL seeding density and with the addition of fresh media. T cells often saw a 20- to 30-fold expansion.
Expansion beads were magnetically removed from the T cell culture. Remaining T cells were cultured at 1×10^6 cells/mL in media and the IL-2 level was dropped to 10 units/milliliter (U/mL). T cells are rested 24 hours. Meanwhile, another vial of PBMC of the same donor was thawed and similarly rested overnight in media. 1 million expanded T cells and 0.25 million PBMC were cocultured in 1 mL of media containing 10 U/mL IL-2 in 24 well plates. Each well was stimulated with 40 μg of peptide with at least 6 well replicates for each peptide. Sterile water with 10% DMSO was used as a negative control. Plates were incubated at 37° C., 5% CO2 for 3 days. After 3 days, supernatants of each well were collected into Eppendorf tubes and frozen. Cells were resuspended in fresh media containing 10 U/mL IL-2. Cells were restimulated with 40 μg of peptide in the same format. Plates were incubated for another 3 days (see FIG. 2). Supernatants were collected after the second stimulation and cell culture was terminated.
IL-10 and IFN-γ cytokine concentrations were determined for samples. 96-well microwell plates were coated with capture antibody and incubated overnight at 4° C. Frozen supernatants were thawed and assayed using ELISA MAX™ Deluxe kits.
To quantify the number of responding wells for each peptide, a one sample t-test was utilized where signal from each well was compared against the distribution of negative wells from vehicle only controls. The negative distribution was normal (based on Shapiro Wilk test). […] As such, for each peptide, a fraction of responding wells was derived. The fraction of responding wells after the first and second peptide stimulations in the expanded CD4+ T cell assay are shown in FIGS. 5A-5D. Moreover, the fraction of responding wells was further subjected to the statistical test for proportions which takes into account the sample size.

Substance	response across donors (frequency of responding wells, IL-10 and IFN-γ)	IFN-γ signal (upon double stimulation)	IFN-γ signal (upon single stimulation)	IFN-γ release (peptide 40 μg/mL, FIGS. 5A-5D)	specificity for IL-10 production vs IFN-γ (three different donors expressing HLA-DRB1*1101)
KLAKRLLLSMNQ [KBP63]	respond across donors	–	–	–	–
Keyhole limpet haemocyanin [KLH, reference compound]	–	150 pg/mL	80 pg/mL	–	–
LALLAPKLLRRF [KBP73]	respond across donors	–	–	–	–
FAVPAKQAKKTLT [KBP82]	respond across donors	–	–	minimal levels	high specificity

Reference: patent US20260062445A1, “PEPTIDES WITH CYTOKINE-RELEASING ACTIVITY AND METHODS FOR CHARACTERIZING CYTOKINE-RELEASING PROFILES OF PEPTIDES” (KOLIBER BIOSCIENCES INC., priority 2022, published 2026)
